# Publication PMC8413292, “Small-molecule polymerase inhibitor protects non-human primates from measles and reduces shedding” (Nature Communications, 2021)
# Several values for one entry are separate records, joined by “and”; a condition that tells them apart may be missing. Equal values may be shown once.
# Legend:
# [1] = system: MeV/NewJersey.USA/94/1 (genotype D6); experiment: PK and PD recapitulation ex vivo in MeV-infected human PBMCs, progeny virus titer (TCID50); type: cell-based, Measles virus in human PBMCs; conditions: for Virus titers: hPBMCs, individual repeats; for Mean, Transform of Virus Titer: n = 4
# Procedure: Human peripheral blood mononuclear cells (hPBMCs) were infected (MOI = 0.1 TCID50 units per cell) in a 24-well plate format with MeV/NewJersey.USA/94/1 (genotype D6) in the presence of ERDRP-0519 or DMSO (0.1%). […] Cells were collected 48 h after infection and virus was subsequently harvested after two freeze thaw cycles. Released virus titers were then determined by limited dilution method (TCID50) on Vero/hSLAM cells. Four biological repeats were used for each ex vivo PK recapitulation and three biological repeats were used for DMSO-treated hPBMCs.
# PK and PD recapitulation in human blood mononuclear cells
# To test whether viral replication in […]
# circumstances, we performed an in vitro recapitulation experiment. For this, we infected human PBMCs in a 24-well plate format with MeV/NewJersey.USA/94/1 (genotype D6) at a multiplicity of infection of 0.1 TCID 50 units per cell. To mimic the ERDRP-0519 serum concentration profile in vitro , we adjusted the drug concentrations in our PBMC cultures multiple times during the incubation period as shown by the colored areas in Fig. 1c (recapitulating a once per day treatment regimen, q.d.) and Fig. 1d (recapitulating a twice daily treatment regimen, b.i.d.) and summarized in Supplementary Table 3. The concentration changes were applied for a total of 48 h to the infected PBMC cultures (a total of two cycles of the q.d. regimen and four cycles of the b.i.d. regimen, assuming no drug accumulation during repeated treatment). As controls, infected PBMCs were incubated in the presence of vehicle only (0.1 % DMSO) or with a constant concentration of 1.5 µM of ERDRP-0519 over the whole period of 48 h post infection. Cells were collected 48 hours after infection and virus was subsequently harvested after two freeze thaw cycles. Released virus titers were then determined by limited dilution method (TCID 50) on Vero/hSLAM cells (Fig. 1e). Four biological repeats were used for each ex vivo PK recapitulation and three biological repeats were used for DMSO-treated hPBMCs.
# [2] = Necropsy and histology (H&E) for pharmacotoxicity; type: in vivo
# Source text: After euthanasia, each animal was examined for gross pathological changes, and samples were collected for histopathological examination. After fixation, all tissue samples were embedded in paraffin. Histology slices were mounted and stained using standard H&E staining techniques.
compound,measurement,setting,value
Cn1nc(C(F)(F)F)cc1C(=O)Nc1ccc(S(=O)(=O)N2CCCC[C@H]2CCN2CCOCC2)cc1 [ERDRP-0519],reduction in progeny virus titer,"[1]; continuous exposure of MeV-infected hPBMCs to 1.5 µM, 48 h",greater than three orders of magnitude reduction
same,Virus titers,"[1]; 48 h, b.i.d. 50 mg/kg simulated profile",1.80E+02 TCID50/10^6 PBMCs and 3.21E+02 TCID50/10^6 PBMCs and 4.27E+02 TCID50/10^6 PBMCs and 7.60E+01 TCID50/10^6 PBMCs
same,Virus titers,"[1]; 48 h, constant 1.5 μM",7.60E+01 TCID50/10^6 PBMCs and 5.70E+01 TCID50/10^6 PBMCs and 4.27E+01 TCID50/10^6 PBMCs
same,Virus titers,"[1]; 48 h, q.d. 50 mg/kg simulated profile",1.80E+03 TCID50/10^6 PBMCs and 2.40E+03 TCID50/10^6 PBMCs and 3.21E+03 TCID50/10^6 PBMCs and 1.35E+03 TCID50/10^6 PBMCs
same,"Mean, Transform of Virus Titer",[1]; once daily recapitulation,3.318
same,"Mean Diff., Transform of Virus Titer",[1]; once daily vs. trough,1.531
same,"Mean Diff., Transform of Virus Titer",[1]; once daily vs. twice daily,0.9998
same,"Mean Diff., Transform of Virus Titer",[1]; once daily vs. vehicle,-1.854
same,progeny MeV titers versus untreated controls,"[1]; q.d. and b.i.d. regimen recapitulated ex vivo in hPBMCs, 48 h",significantly (p < 0.0001) lower than in untreated controls
same,"Mean, Transform of Virus Titer",[1]; trough (constant 1.5 µM),1.787
same,"Mean Diff., Transform of Virus Titer",[1]; trough vs. vehicle,-3.385
same,"Mean, Transform of Virus Titer",[1]; twice daily recapitulation,2.318
same,"Mean Diff., Transform of Virus Titer",[1]; twice daily vs. trough,0.5313
same,"Mean Diff., Transform of Virus Titer",[1]; twice daily vs. vehicle,-2.853
same,histological signs of pharmacotoxicity,"[2]; all monkeys, day 21, 50 mg/kg b.i.d. 14 days",No histological signs of pharmacotoxicity were detected
same,liver histology of the deceased animal versus untreated control,[2]; day 3 therapeutic group animal deceased day 15,no pathological alternations
